# What was measured:
# Format in all cases: biochemical
# thrombin = molecular target: T1, thrombin (Homo sapiens, UniProt P00734); assay: Determination of selectivity: thrombin inhibition, chromogenic substrate GPR assay; details: fold selectivity for FXIIa over thrombin
# T1 construct: FXa (5 nM) and thrombin (5 nM)
# In short: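 Thrombin (5 nM) preincubated with compound 10 min at 37 °C in 50 mM Tris, 137 mM NaCl, pH 7.4, 5% DMSO, then GPR substrate ([…]) added. Absorbance at 405 nm read kinetically for 3 h; IC50 from initial rates, converted to Ki via Ki=IC50/(1+[S]/Km).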
# FXIIa = molecular target: T2, FXIIa (Homo sapiens, UniProt P00748); assay: Determination of Factor XIIa inhibition, chromogenic substrate S-2302 assay; details: human FXIIa alpha
# T2 sequence (P00748 373-615 limits assumed): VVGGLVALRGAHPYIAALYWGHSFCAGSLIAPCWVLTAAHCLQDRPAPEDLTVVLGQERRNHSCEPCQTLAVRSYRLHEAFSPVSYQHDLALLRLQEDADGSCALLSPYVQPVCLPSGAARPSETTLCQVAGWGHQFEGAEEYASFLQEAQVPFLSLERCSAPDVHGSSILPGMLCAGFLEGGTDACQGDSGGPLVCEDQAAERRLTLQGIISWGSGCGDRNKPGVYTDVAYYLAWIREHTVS
# T2 sequence (P00748 20-372 partner limits assumed): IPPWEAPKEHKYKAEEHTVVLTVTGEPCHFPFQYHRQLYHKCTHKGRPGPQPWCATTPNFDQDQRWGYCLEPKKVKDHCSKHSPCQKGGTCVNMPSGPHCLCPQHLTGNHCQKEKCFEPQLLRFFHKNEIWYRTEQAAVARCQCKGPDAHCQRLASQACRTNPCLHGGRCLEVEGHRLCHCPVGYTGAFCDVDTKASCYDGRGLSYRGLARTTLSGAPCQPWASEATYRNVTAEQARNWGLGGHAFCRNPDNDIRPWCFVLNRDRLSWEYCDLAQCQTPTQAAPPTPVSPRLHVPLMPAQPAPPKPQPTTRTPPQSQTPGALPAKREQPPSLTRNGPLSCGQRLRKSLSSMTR
# In short: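 FXIIa (10 nM) preincubated with compound 10 min at 37° C. in 50 mM Tris, 137 mM NaCl pH 7.4, 5% DMSO, top concentration 500 μM, then S-2302 added ([…]). Absorbance at 405 nm read kinetically for 3 h; IC50 from initial rates, converted to Ki by Cheng-Prusoff.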
# FXa = FXa (Homo sapiens, UniProt P00742); assay: Determination of selectivity: FXa inhibition, chromogenic substrate S2765 assay; details: fold selectivity for FXIIa over FXa
# In short: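 Human FXa (5 nM) preincubated with compound (top 500 μM, 5% DMSO) 10 min at 37 °C in 50 mM Tris, 137 mM NaCl pH 7.4, then S2765 ([…]) added; A405 kinetics over 3 h at 37 °C. IC50 from initial rates, converted to Ki via Cheng-Prusoff.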
# Chain of FXa (P00742 235-488 limits assumed): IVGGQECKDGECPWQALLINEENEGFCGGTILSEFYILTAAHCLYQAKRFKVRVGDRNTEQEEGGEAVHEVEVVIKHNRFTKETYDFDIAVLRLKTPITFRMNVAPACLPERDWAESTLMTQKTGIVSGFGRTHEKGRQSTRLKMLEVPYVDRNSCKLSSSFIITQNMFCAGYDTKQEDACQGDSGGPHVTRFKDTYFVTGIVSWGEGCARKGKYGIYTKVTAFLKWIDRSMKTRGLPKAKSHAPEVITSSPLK
# Chain of FXa (P00742 41-179 partner limits assumed): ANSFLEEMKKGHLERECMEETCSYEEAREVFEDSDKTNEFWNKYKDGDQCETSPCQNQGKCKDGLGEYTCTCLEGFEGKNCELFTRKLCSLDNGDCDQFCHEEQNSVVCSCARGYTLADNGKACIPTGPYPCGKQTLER
SMILES,Thrombin (human)/FXIIa alpha (human) (thrombin),Ki (FXIIa) [nM],FXa (human)/FXIIa alpha (human) (FXa)
Cn1nnc2cc(CNC(=O)[C@@H]3C[C@H](NC(=O)CCCc4ccccc4)CN3C(=O)[C@H](N)CCc3ccccc3)ccc21 [Example M05196],++ (fold selectivity value of 10 to 100),> 2000,∘∘
NCc1ccc(CNC(=O)[C@@H]2CCCN2C(=O)[C@H](N)CCN2CCCCC2)cc1 [Example M00801],++ (fold selectivity value of 10 to 100),> 2000,∘∘
Cn1nnc2cc(CNC(=O)[C@@H]3CCCN3C(=O)[C@H](N)CCC(=O)N3CCCC3)ccc21 [Example M05308],++ (fold selectivity value of 10 to 100),> 2000,∘∘
CC(=O)N[C@H]1C[C@@H](C(=O)NCc2ccnc(N)c2)N(C(=O)[C@H](N)CCc2ccccc2)C1 [Example M05141],+ (fold selectivity values less than 10),> 2000,∘
COc1ccc(C[C@@H]2C[C@@H](C(=O)NCc3ccc4c(c3)nnn4C)N(C(=O)[C@H](N)CCC(=O)N3[C@H]4CC[C@@H]3CC4)C2)cc1 [Example M05394],+++ (fold selectivity values greater than 100),200 to 2000,∘∘∘
"Cn1nnc2cc(CNC(=O)[C@@H]3C[C@H](Cc4cccc(Cl)c4)CN3C(=O)[C@H](N)CCC(=O)N3CCCC3)ccc21 [Example M05210, (2S,4S)-1-((R)-2-amino-5-oxo-5-pyrrolidin-1-yl-pentanoyl)-4-(3-chloro-benzyl)-pyrrolidine-2-carboxylic acid (1-methyl-1H-benzotriazol-5-ylmethyl)-amide]",+++ (fold selectivity values greater than 100),200 to 2000,∘∘∘
Cn1nnc2cc(CNC(=O)[C@@H]3C[C@@H](Cc4cccc(Br)c4)CN3C(=O)[C@H]3C[C@@H](c4ccccc4)CN3)ccc21 [Example M05366],++ (fold selectivity value of 10 to 100),200 to 2000,∘∘
NCc1ccc(CNC(=O)[C@@H]2CCCN2C(=O)[C@H](N)CCc2cccnc2)cc1 [Example M00808],+ (fold selectivity values less than 10),> 2000,∘∘
Cn1nnc2cc(CNC(=O)[C@@H]3C[C@H](CC4CCOCC4)CN3C(=O)[C@H](N)CCC(=O)N3CCCC3)ccc21 [Example M05293],++ (fold selectivity value of 10 to 100),> 2000,∘∘
Cn1nnc2cc(CNC(=O)[C@@H]3C[C@H](NC(=O)Cc4ccccc4)CN3C(=O)[C@H](N)CCc3ccccc3)ccc21 [Example M05216],++ (fold selectivity value of 10 to 100),> 2000,∘∘
Cn1nnc2cc(CNC(=O)[C@@H]3C[C@H](C(F)(F)F)CN3C(=O)[C@H](N)CCC(=O)N3CCCC3)ccc21 [Example M05139],+++ (fold selectivity values greater than 100),> 2000,∘∘∘
COc1ccc(C[C@@H]2C[C@@H](C(=O)NCc3ccc4c(c3)nnn4C)N(C(=O)C3NCCc4cc(Br)ccc43)C2)cc1 (stereo partly drawn) [Example M05470],+++ (fold selectivity values greater than 100),< 200,∘∘∘
Cn1nnc2cc(CNC(=O)[C@@H]3C[C@@H](Cc4ccccc4C#N)CN3C(=O)[C@H]3C[C@@H](c4ccccc4)CN3)ccc21 [Example M05337],++ (fold selectivity value of 10 to 100),> 2000,∘∘
NCc1ccc(CNC(=O)[C@@H]2CCCN2C(=O)[C@H](N)CCC(=O)N2CCC3CC32)cc1 (stereo partly drawn) [Example M00929],+ (fold selectivity values less than 10),> 2000,∘∘
N[C@H](CCC(=O)N1CCCC1)C(=O)N1C[C@H](Cc2ccc(C(F)(F)F)cc2)C[C@H]1C(=O)NCc1cc2cnccc2[nH]1 [Example M00969],+++ (fold selectivity values greater than 100),< 200,∘∘∘
Cn1nnc2cc(CNC(=O)[C@@H]3C[C@@H](Cc4cccc(F)c4)CN3C(=O)[C@H]3C[C@@H](c4ccccc4)CN3)ccc21 [Example M05327],++ (fold selectivity value of 10 to 100),> 2000,∘
NCc1ccc(CNC(=O)C2CCCN2C(=O)[C@H](N)CCc2cccc(CO)c2)cc1 (stereo partly drawn) [Example M00805],+ (fold selectivity values less than 10),> 2000,∘∘
COc1ccc(C[C@@H]2C[C@@H](C(=O)NCc3ccc4c(c3)nnn4C)N(C(=O)[C@H]3C[C@@H](c4ccccc4)CN3)C2)cc1Cl [Example M05339],+++ (fold selectivity values greater than 100),200 to 2000,∘∘∘
Cn1nnc2cc(CNC(=O)[C@@H]3C[C@@H](Cc4ccc(-c5cn[nH]c5)cc4)CN3C(=O)[C@H]3C[C@@H](c4ccccc4)CN3)ccc21 [Example M05364],++ (fold selectivity value of 10 to 100),> 2000,∘∘
Cn1nnc2cc(CNC(=O)[C@@H]3C[C@@H](NC(=O)c4ccccc4)CN3C(=O)[C@H](N)CCc3ccccc3)ccc21 [Example M05179],++ (fold selectivity value of 10 to 100),> 2000,∘∘
NCc1ccc(CNC(=O)[C@@H]2C[C@H](O)CN2C(=O)[C@H](N)CCc2ccccc2)cn1 [Example M05054],++ (fold selectivity value of 10 to 100),> 2000,∘∘
NCc1ccc(CNC(=O)[C@@H]2C[C@@H](Cc3ccncc3)CN2C(=O)[C@H](N)CCc2ccccc2)cc1 [Example M05156],+ (fold selectivity values less than 10),200 to 2000,∘∘∘
Cc1nn(C)c2ccc(CNC(=O)[C@@H]3C[C@@H](Cc4ccncc4)CN3C(=O)[C@H](N)CCC(=O)N3CCCC3)cc12 [Example M05278],++ (fold selectivity value of 10 to 100),200 to 2000,∘∘∘
Cn1nnc2cc(CNC(=O)[C@@H]3C[C@@H](Cc4ccncc4)CN3C(=O)[C@@H](CCC(=O)N3CCCC3)NCCC(F)(F)F)ccc21 [Example M05262],++ (fold selectivity value of 10 to 100),> 2000,∘∘
COc1cc(CNC(=O)[C@@H]2C[C@H](O)CN2C(=O)[C@H](N)CCc2ccccc2)ccc1CN [Example M05056],+++ (fold selectivity values greater than 100),200 to 2000,∘∘∘
COc1ccc(C[C@@H]2C[C@@H](C(=O)NCc3ccc4c(c3)nnn4C)N(C(=O)[C@H]3C[C@@H](c4cccnc4)CN3)C2)cc1 [Example M05354],+++ (fold selectivity values greater than 100),200 to 2000,∘∘∘
